{"source": "PubChem BioAssay AID1259408", "about": "(Genetic Toxicology Data Bank (GENE-TOX), 2018)", "tested_on": "GENE-TOX genotoxicity assays, various organisms and cells", "experiment": "GENE-TOX mutagenicity studies", "settings": "Evaluation Type: Evaluation A (Pre-1980)", "key": {"[1]": {"settings": "Species/Cell Type: Salmonella typhimurium (one or more of the five standard strains: TA98, TA100, TA1535, TA1537, and TA1538), Assay Type: Histidine reverse gene mutation, Ames assay, Assay Code: SALT"}}, "note": "The source made the active and inactive calls. The rule behind the calls is not given here.", "data": [{"smiles": "CCOS(C)(=O)=O", "values": [{"measurement": "mutagenic call", "setting": "Species/Cell Type: Arabidopsis species, Assay Type: Gene mutation, Assay Code: ARM+D, Dose Response: With dose response", "value": "active; positive"}, {"measurement": "mutagenic call", "setting": "Species/Cell Type: Aspergillus nidulans, Assay Type: Forward gene mutation, Assay Code: ASF+", "value": "active; positive"}, {"measurement": "mutagenic call", "setting": "Species/Cell Type: Aspergillus nidulans, Assay Type: Reverse gene mutation, Assay Code: ASR+", "value": "active; positive"}, {"measurement": "mutagenic call", "setting": "Species/Cell Type: Chinese hamster lung (V79) cells, Assay Type: Forward gene mutation at the HPRT or ouabain locus, Assay Code: V79+", "value": "active; positive"}, {"measurement": "mutagenic call", "setting": "Species/Cell Type: Chinese hamster ovary (CHO) cells, Assay Type: Forward gene mutation at the HPRT locus, Assay Code: CHO+D, Dose Response: With dose response", "value": "active; positive"}, {"measurement": "mutagenic call", "setting": "Species/Cell Type: Drosophila melanogaster, Assay Type: Sex-linked recessive lethal gene mutation, Assay Code: SRL+", "value": "active; positive"}, {"measurement": "mutagenic call", "setting": "Species/Cell Type: Drosophila melanogaster, Sex: Male, Assay Type: Heritable translocation test, chromosome aberrations, Assay Code: DHT+", "value": "active; positive"}, {"measurement": "mutagenic call", "setting": "Species/Cell Type: Escherichia coli WP2, Assay Type: Tryptophan reverse gene mutation, Assay Code: WP2+", "value": "active; positive"}, {"measurement": "mutagenic call", "setting": "Species/Cell Type: Escherichia coli WP2 UVRA, Assay Type: Tryptophan reverse gene mutation, Assay Code: WPU+", "value": "active; positive"}, {"measurement": "mutagenic call", "setting": "Species/Cell Type: Escherichia coli polA (W3119 vs P3478), Assay Type: Rec-assay, DNA effects (bacterial DNA repair), Assay Code: RE1+", "value": "active; positive"}, {"measurement": "mutagenic call", "setting": "Species/Cell Type: F1 mouse, Sex: Male, Assay Type: Sperm morphology, Assay Code: SPF+", "value": "active; positive"}, {"measurement": "mutagenic call", "setting": "Species/Cell Type: Glycine max (soybean), Assay Type: Gene mutation, Assay Code: GLM+", "value": "active; positive"}, {"measurement": "mutagenic call", "setting": "Species/Cell Type: Hordeum vulgare (barley), Assay Type: Chromosome aberrations, Assay Code: HOC+D, Dose Response: With dose response", "value": "active; positive"}, {"measurement": "mutagenic call", "setting": "Species/Cell Type: Hordeum vulgare (barley), Assay Type: Gene mutation, Assay Code: HOM+D, Dose Response: With dose response", "value": "active; positive"}, {"measurement": "mutagenic call", "setting": "Species/Cell Type: Human diploid fibroblasts, Assay Type: Unscheduled DNA synthesis (UDS) in vitro, DNA effects, Assay Code: UDH+D, Dose Response: With dose response", "value": "active; positive"}, {"measurement": "mutagenic call", "setting": "Species/Cell Type: Human lymphocytes, Assay Type: Micronucleus test in vitro, chromosome aberrations, Assay Code: MN7+", "value": "active; positive"}, {"measurement": "mutagenic call", "setting": "Species/Cell Type: Human lymphocytes, Assay Type: Sister-chromatid exchange (SCE) in vitro, Assay Code: SCL+", "value": "active; positive"}, {"measurement": "mutagenic call", "setting": "Species/Cell Type: Human, Assay Type: Sister-chromatid exchange (SCE) in vitro, Assay Code: SC1+D, Dose Response: With dose response", "value": "active; positive"}, {"measurement": "mutagenic call", "setting": "Species/Cell Type: Mammalian germ cells, Sex: Male, Assay Type: Chromosome aberrations in vivo, Assay Code: CY9T", "value": "no conclusion"}, {"measurement": "mutagenic call", "setting": "Species/Cell Type: Mammalian polychromatic erythrocytes, Assay Type: Micronucleus test, chromosome aberrations, Assay Code: MNT+", "value": "active; positive"}, {"measurement": "mutagenic call", "setting": "Species/Cell Type: Mouse germ cells, Sex: Male, Assay Type: Unscheduled DNA synthesis (UDS) in vivo, DNA effects, Assay Code: UDT+", "value": "active; positive"}, {"measurement": "mutagenic call", "setting": "Species/Cell Type: Mouse lymphoma (L5178Y) cells, Assay Type: Forward gene mutation at the thymidine kinase (TK) locus, chromosome aberrations, Assay Code: L51+", "value": "active; positive"}, {"measurement": "mutagenic call", "setting": "Species/Cell Type: Mouse, Sex: Female, Assay Type: Spot test, gene mutation, Assay Code: MST+", "value": "active; positive"}, {"measurement": "mutagenic call", "setting": "Species/Cell Type: Mouse, Sex: Male, Assay Type: Heritable translocation test, chromosome aberrations, Assay Code: HTT+D, Dose Response: With dose response", "value": "active; positive"}, {"measurement": "mutagenic call", "setting": "Species/Cell Type: Mouse, Sex: Male, Assay Type: Specific locus test, gene mutation, Assay Code: SLT+", "value": "active; positive"}, {"measurement": "mutagenic call", "setting": "Species/Cell Type: Mouse, Sex: Male, Assay Type: Sperm morphology, Assay Code: SPI+", "value": "active; positive"}, {"measurement": "mutagenic call", "setting": "Species/Cell Type: Neurospora crassa, Assay Type: Aneuploidy, chromosome aberrations, Assay Code: NEN-", "value": "inactive; negative"}, {"measurement": "mutagenic call", "setting": "Species/Cell Type: Neurospora crassa, Assay Type: Forward gene mutation, Assay Code: NEF+", "value": "active; positive"}, {"measurement": "mutagenic call", "setting": "Species/Cell Type: Neurospora crassa, Assay Type: Reverse gene mutation, Assay Code: NER+", "value": "active; positive"}, {"measurement": "mutagenic call", "setting": "Species/Cell Type: Nonhuman bone marrow, Assay Type: Chromosome aberrations, in vivo, Assay Code: CY#+", "value": "active; positive"}, {"measurement": "call", "setting": "Species/Cell Type: Nonhuman, Assay Type: In vivo carcinogenicity studies, Assay Code: CCG+", "value": "active; positive"}, {"measurement": "mutagenic call", "setting": "Species/Cell Type: Nonhuman, Assay Type: Sister-chromatid exchange (SCE) in vitro, Assay Code: SC2+D, Dose Response: With dose response", "value": "active; positive"}, {"measurement": "mutagenic call", "setting": "Species/Cell Type: Nonhuman, Assay Type: Sister-chromatid exchange (SCE) in vivo, Assay Code: SC3+D, Dose Response: With dose response", "value": "active; positive"}, {"measurement": "mutagenic call", "setting": "Species/Cell Type: Plant, Assay Type: Micronucleus test, chromosome aberrations, Assay Code: MNP-", "value": "inactive; negative"}, {"measurement": "mutagenic call", "setting": "Species/Cell Type: Rodents, Sex: Male, Assay Type: Dominant lethal test, Assay Code: DLT+D, Dose Response: With dose response", "value": "active; positive"}, {"measurement": "mutagenic call", "setting": "Species/Cell Type: Saccharomyces cerevisiae, Assay Type: Aneuploidy, chromosome aberrations, Assay Code: YEN+", "value": "active; positive"}, {"measurement": "mutagenic call", "setting": "Species/Cell Type: Saccharomyces cerevisiae, Assay Type: Forward gene mutation, Assay Code: YEF+", "value": "active; positive"}, {"measurement": "mutagenic call", "setting": "Species/Cell Type: Saccharomyces cerevisiae, Assay Type: Mitotic recombination or gene conversion, Assay Code: YEC+", "value": "active; positive"}, {"measurement": "mutagenic call", "setting": "Species/Cell Type: Saccharomyces cerevisiae, Assay Type: Mitotic recombination or gene conversion, Assay Code: YEH+", "value": "active; positive"}, {"measurement": "mutagenic call", "setting": "Species/Cell Type: Saccharomyces cerevisiae, Assay Type: Reverse gene mutation, Assay Code: YER+", "value": "active; positive"}, {"measurement": "mutagenic call", "setting": "Species/Cell Type: Salmonella typhimurium (one or more of the five standard strains: TA98, TA100, TA1535, TA1537, and TA1538), Assay Type: Histidine reverse gene mutation, Ames assay, Assay Code: SAL+", "value": "active; positive"}, {"measurement": "mutagenic call", "setting": "Species/Cell Type: Salmonella typhimurium, Escherichia coli, Serratia marcesens, Neurospora crassa, Saccharomyces cerevisiae, Chinese hamst, Assay Type: Forward and reverse gene mutation, lethal mutation, mitotic recombination and gene conversion, DNA effects, host-mediate, Assay Code: HM8+", "value": "active; positive"}, {"measurement": "mutagenic call", "setting": "Species/Cell Type: Schizosaccharomyces pombe, Assay Type: Forward gene mutation, Assay Code: YEY+", "value": "active; positive"}, {"measurement": "mutagenic call", "setting": "Species/Cell Type: Schizosaccharomyces pombe, Assay Type: Reverse gene mutation, Assay Code: YEZ+", "value": "active; positive"}, {"measurement": "mutagenic call", "setting": "Species/Cell Type: Syrian hamster embryo (SA7/SHE) cells, Assay Type: Cell transformation, viral enhanced, Assay Code: CT7+", "value": "active; positive"}, {"measurement": "mutagenic call", "setting": "Species/Cell Type: Syrian hamster embryo (SHE) cells, Assay Type: Cell transformation, clonal assay, Assay Code: CTC+", "value": "active; positive"}, {"measurement": "mutagenic call", "setting": "Species/Cell Type: Syrian hamster embryo (SHE) cells, Assay Type: Cell transformation, focus assay, Assay Code: CTF+", "value": "active; positive"}, {"measurement": "mutagenic call", "setting": "Species/Cell Type: Tradescantia species, Assay Type: Chromosome aberrations, Assay Code: TRC+D, Dose Response: With dose response", "value": "active; positive"}, {"measurement": "mutagenic call", "setting": "Species/Cell Type: Tradescantia species, Assay Type: Gene mutation, Assay Code: TRM+D, Dose Response: With dose response", "value": "active; positive"}, {"measurement": "mutagenic call", "setting": "Species/Cell Type: Vicia faba, Assay Type: Chromosome aberrations, Assay Code: VIC+D, Dose Response: With dose response", "value": "active; positive"}, {"measurement": "mutagenic call", "setting": "Species/Cell Type: Zea mays (corn), Assay Type: Gene mutation, Assay Code: ZEM+D, Dose Response: With dose response", "value": "active; positive"}]}, {"smiles": "Oc1ccc(Cl)c2cccnc12", "values": [{"measurement": "mutagenic call", "setting": "[1]", "value": "no conclusion"}]}, {"smiles": "Cc1csc(NNC=O)n1", "values": [{"measurement": "mutagenic call", "setting": "Species/Cell Type: Escherichia coli WP2, Assay Type: Tryptophan reverse gene mutation, Assay Code: WP2-", "value": "inactive; negative"}, {"measurement": "mutagenic call", "setting": "Species/Cell Type: Escherichia coli WP2 UVRA, Assay Type: Tryptophan reverse gene mutation, Assay Code: WPU-", "value": "inactive; negative"}]}, {"smiles": "CCN(CC)Cc1cc(Br)ccc1OCC(=O)N/N=C\\c1ccc(OC)cc1", "values": [{"measurement": "mutagenic call", "setting": "Species/Cell Type: Saccharomyces cerevisiae, Assay Type: Reverse gene mutation, Assay Code: YERT", "value": "no conclusion"}]}, {"smiles": "CN(C)CCC=C1c2ccccc2C=Cc2ccccc21", "values": [{"measurement": "mutagenic call", "setting": "[1]", "value": "no conclusion"}]}, {"smiles": "O=C(Cl)c1ccccc1", "values": [{"measurement": "mutagenic call", "setting": "Species/Cell Type: Bacillus subtilis (H17 vs M45), Assay Type: Rec-assay, spot test, DNA effects (bacterial DNA repair), Assay Code: REWT", "value": "no conclusion"}]}, {"smiles": "[N-]=[N+]=CC(=O)CCCCC(=O)C=[N+]=[N-]", "values": [{"measurement": "mutagenic call", "setting": "Species/Cell Type: Allium cepa, Assay Type: Chromosome aberrations, Assay Code: ALC-", "value": "inactive; negative"}, {"measurement": "mutagenic call", "setting": "Species/Cell Type: Aspergillus nidulans, Assay Type: Reverse gene mutation, Assay Code: ASRT", "value": "no conclusion"}, {"measurement": "mutagenic call", "setting": "Species/Cell Type: Hordeum vulgare (barley), Assay Type: Gene mutation, Assay Code: HOM+", "value": "active; positive"}]}]}
